Measurements taken from PMC4823954, “From fighting depression to conquering tumors: a novel tricyclic thiazepine compound as a tubulin polymerization inhibitor” (Cell Death & Disease, 2016).

Key:
Assay in all cases: KINOMEscan
Assay type in all cases: binding
Details in all cases: read-out: % Ctrl
MELK = molecular target: T1, MELK (Homo sapiens, UniProt Q14680)
T1 construct: purchased DiscoveRx KINOMEscan
Summary of the method: (§1)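 Competition binding panel of 442 non-mutant kinases: test compound at 5 and 10 μM competed with an active-site-directed ligand for 1 h with shaking. Bound kinase was eluted with 0.5 μM ligand and quantified by qPCR; %Ctrl = (compound − positive control)/(DMSO − positive control) × 100, lower meaning tighter binding.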

MST2 = molecular target: T2, MST2 (Homo sapiens, UniProt Q13188)
T2 construct: purchased DiscoveRx KINOMEscan
Summary of the method: as §1

AXL = molecular target: T3, AXL (Homo sapiens, UniProt P30530)
T3 construct: purchased DiscoveRx KINOMEscan
Summary of the method: as §1

BRK = molecular target: T4, BRK (Homo sapiens, UniProt Q13882)
T4 construct: purchased DiscoveRx KINOMEscan
Summary of the method: as §1

PIK3CG = molecular target: T5, PIK3CG (Homo sapiens, UniProt P48736)
T5 construct: purchased DiscoveRx KINOMEscan
Summary of the method: as §1

TBK1 = molecular target: T6, TBK1 (Homo sapiens, UniProt Q9UHD2)
T6 construct: purchased DiscoveRx KINOMEscan
Summary of the method: as §1

CDK3 = molecular target: T7, CDK3 (Homo sapiens, UniProt Q00526)
T7 construct: purchased DiscoveRx KINOMEscan
Summary of the method: as §1

ERN1 = molecular target: T8, ERN1 (Homo sapiens, UniProt O75460)
T8 construct: purchased DiscoveRx KINOMEscan
Summary of the method: as §1

STK35 = molecular target: T9, STK35 (Homo sapiens, UniProt Q8TDR2)
T9 construct: purchased DiscoveRx KINOMEscan
Summary of the method: as §1

SgK110 = molecular target: T10, SgK110 (Homo sapiens, UniProt P0C264)
T10 construct: purchased DiscoveRx KINOMEscan
Summary of the method: as §1

[1] = molecular target: T11, RPS6KA4(Kin.Dom.1-N-terminal) (Homo sapiens, UniProt O75676)
T11 construct: RPS6KA4(Kin.Dom.1-N-terminal); purchased DiscoveRx KINOMEscan
Summary of the method: as §1

INSR = molecular target: T12, INSR (Homo sapiens, UniProt P06213)
T12 construct: purchased DiscoveRx KINOMEscan
Summary of the method: as §1

DAPK1 = molecular target: T13, DAPK1 (Homo sapiens, UniProt P53355)
T13 construct: purchased DiscoveRx KINOMEscan
Summary of the method: as §1

PIK3CA(H1047Y) = molecular target: T14, PIK3CA(H1047Y) (Homo sapiens, UniProt P42336, H1047Y)
T14 construct: purchased DiscoveRx KINOMEscan

PIM1 = molecular target: T15, PIM1 (Homo sapiens, UniProt P11309)
T15 construct: purchased DiscoveRx KINOMEscan
Summary of the method: as §1

MLK3 = molecular target: T16, MLK3 (Homo sapiens, UniProt Q16584)
T16 construct: purchased DiscoveRx KINOMEscan
Summary of the method: as §1

MAP3K1 = molecular target: T17, MAP3K1 (Homo sapiens, UniProt Q13233)
T17 construct: purchased DiscoveRx KINOMEscan
Summary of the method: as §1

CAMK1G = molecular target: T18, CAMK1G (Homo sapiens, UniProt Q96NX5)
T18 construct: purchased DiscoveRx KINOMEscan
Summary of the method: as §1

SRPK2 = molecular target: T19, SRPK2 (Homo sapiens, UniProt P78362)
T19 construct: purchased DiscoveRx KINOMEscan
Summary of the method: as §1

PYK2 = molecular target: T20, PYK2 (Homo sapiens, UniProt Q14289)
T20 construct: purchased DiscoveRx KINOMEscan
Summary of the method: as §1

CDK9 = molecular target: T21, CDK9 (Homo sapiens, UniProt P50750)
T21 construct: purchased DiscoveRx KINOMEscan
Summary of the method: as §1

YSK1 = molecular target: T22, YSK1 (Homo sapiens, UniProt O00506)
T22 construct: purchased DiscoveRx KINOMEscan
Summary of the method: as §1

ULK1 = molecular target: T23, ULK1 (Homo sapiens, UniProt O75385)
T23 construct: purchased DiscoveRx KINOMEscan
Summary of the method: as §1

PIM3 = molecular target: T24, PIM3 (Homo sapiens, UniProt Q86V86)
T24 construct: purchased DiscoveRx KINOMEscan
Summary of the method: as §1

EGFR = molecular target: T25, EGFR (Homo sapiens, UniProt P00533)
T25 construct: purchased DiscoveRx KINOMEscan
Summary of the method: as §1

TESK1 = molecular target: T26, TESK1 (Homo sapiens, UniProt Q15569)
T26 construct: purchased DiscoveRx KINOMEscan
Summary of the method: as §1

ACVR2A = molecular target: T27, ACVR2A (Homo sapiens, UniProt P27037)
T27 construct: purchased DiscoveRx KINOMEscan
Summary of the method: as §1

PIK3CA(C420R) = molecular target: T28, PIK3CA(C420R) (Homo sapiens, UniProt P42336, C420R)
T28 construct: purchased DiscoveRx KINOMEscan

S6K1 = molecular target: T29, S6K1 (Homo sapiens, UniProt P23443)
T29 construct: purchased DiscoveRx KINOMEscan
Summary of the method: as §1

PAK7 = molecular target: T30, PAK7 (Homo sapiens, UniProt Q9P286)
T30 construct: purchased DiscoveRx KINOMEscan
Summary of the method: as §1

T17 sequence (Q13233 whole entry): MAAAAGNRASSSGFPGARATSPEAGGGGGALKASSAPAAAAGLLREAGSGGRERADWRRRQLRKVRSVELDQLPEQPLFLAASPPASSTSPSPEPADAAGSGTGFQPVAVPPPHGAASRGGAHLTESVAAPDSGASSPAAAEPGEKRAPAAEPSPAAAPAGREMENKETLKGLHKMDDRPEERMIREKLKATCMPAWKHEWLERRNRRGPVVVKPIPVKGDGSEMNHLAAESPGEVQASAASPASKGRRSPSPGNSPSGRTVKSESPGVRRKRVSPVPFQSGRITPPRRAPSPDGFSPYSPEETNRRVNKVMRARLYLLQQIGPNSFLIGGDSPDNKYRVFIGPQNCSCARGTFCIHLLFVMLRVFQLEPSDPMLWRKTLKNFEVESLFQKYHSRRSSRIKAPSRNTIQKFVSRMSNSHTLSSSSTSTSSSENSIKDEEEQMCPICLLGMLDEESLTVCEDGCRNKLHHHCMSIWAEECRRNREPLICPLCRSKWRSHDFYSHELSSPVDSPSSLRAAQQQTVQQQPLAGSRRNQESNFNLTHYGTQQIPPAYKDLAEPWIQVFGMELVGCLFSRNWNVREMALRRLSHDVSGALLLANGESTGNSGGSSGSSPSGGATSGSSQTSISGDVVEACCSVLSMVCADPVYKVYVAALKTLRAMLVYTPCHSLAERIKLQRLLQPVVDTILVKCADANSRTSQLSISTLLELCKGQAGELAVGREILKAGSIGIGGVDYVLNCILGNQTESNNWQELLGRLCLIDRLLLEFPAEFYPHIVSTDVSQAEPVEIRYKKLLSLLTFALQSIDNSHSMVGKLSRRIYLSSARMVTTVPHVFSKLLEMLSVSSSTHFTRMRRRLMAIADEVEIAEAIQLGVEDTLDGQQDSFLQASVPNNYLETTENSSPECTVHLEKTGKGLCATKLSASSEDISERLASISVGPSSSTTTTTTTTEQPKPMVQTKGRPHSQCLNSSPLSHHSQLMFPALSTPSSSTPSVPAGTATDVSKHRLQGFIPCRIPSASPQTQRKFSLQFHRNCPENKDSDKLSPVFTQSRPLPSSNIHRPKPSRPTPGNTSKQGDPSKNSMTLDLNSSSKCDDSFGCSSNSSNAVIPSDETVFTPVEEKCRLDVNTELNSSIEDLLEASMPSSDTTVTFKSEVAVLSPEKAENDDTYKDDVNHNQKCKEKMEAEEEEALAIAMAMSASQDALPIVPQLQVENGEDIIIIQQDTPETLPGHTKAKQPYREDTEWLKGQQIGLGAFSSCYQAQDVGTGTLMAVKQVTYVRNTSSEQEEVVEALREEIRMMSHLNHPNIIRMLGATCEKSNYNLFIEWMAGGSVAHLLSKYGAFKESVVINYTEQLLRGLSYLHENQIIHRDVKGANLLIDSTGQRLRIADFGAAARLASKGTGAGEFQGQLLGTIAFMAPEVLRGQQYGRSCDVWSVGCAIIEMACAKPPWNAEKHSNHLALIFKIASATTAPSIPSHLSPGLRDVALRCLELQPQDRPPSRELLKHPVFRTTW
T2 sequence (Q13188 whole entry): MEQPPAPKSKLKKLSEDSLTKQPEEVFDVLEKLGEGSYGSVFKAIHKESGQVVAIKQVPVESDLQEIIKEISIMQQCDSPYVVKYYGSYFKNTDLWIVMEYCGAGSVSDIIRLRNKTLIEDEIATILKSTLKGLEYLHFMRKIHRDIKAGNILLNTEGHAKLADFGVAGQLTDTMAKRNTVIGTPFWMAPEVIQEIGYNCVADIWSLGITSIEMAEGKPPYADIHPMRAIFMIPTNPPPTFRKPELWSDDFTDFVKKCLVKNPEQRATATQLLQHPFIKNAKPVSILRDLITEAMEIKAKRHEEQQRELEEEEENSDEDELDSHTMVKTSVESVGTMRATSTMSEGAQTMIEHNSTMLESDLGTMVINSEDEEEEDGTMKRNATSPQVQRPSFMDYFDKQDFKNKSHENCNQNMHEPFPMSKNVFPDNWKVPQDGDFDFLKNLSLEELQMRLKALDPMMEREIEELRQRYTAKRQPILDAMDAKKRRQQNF
T30 sequence (Q9P286 whole entry): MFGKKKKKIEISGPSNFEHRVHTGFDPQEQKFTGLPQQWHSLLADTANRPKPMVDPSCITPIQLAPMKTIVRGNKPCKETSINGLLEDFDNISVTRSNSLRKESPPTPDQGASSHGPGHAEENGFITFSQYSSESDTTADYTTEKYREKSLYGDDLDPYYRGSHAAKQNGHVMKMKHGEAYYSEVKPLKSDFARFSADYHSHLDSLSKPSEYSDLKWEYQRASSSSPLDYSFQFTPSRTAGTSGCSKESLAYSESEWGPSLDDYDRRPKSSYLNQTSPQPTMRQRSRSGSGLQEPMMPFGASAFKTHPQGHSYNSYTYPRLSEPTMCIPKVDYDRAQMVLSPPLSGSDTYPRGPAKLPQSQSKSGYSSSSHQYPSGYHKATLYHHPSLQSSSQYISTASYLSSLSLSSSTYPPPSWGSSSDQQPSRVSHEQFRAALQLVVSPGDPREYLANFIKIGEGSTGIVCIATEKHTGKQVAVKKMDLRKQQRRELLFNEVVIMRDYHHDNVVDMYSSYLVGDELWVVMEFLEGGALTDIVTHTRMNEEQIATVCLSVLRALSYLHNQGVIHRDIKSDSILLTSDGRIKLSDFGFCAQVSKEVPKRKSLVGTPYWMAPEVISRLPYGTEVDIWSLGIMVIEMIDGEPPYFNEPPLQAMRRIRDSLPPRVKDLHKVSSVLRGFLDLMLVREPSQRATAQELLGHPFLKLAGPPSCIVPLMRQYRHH
T11 sequence (O75676 1-371 limits assumed): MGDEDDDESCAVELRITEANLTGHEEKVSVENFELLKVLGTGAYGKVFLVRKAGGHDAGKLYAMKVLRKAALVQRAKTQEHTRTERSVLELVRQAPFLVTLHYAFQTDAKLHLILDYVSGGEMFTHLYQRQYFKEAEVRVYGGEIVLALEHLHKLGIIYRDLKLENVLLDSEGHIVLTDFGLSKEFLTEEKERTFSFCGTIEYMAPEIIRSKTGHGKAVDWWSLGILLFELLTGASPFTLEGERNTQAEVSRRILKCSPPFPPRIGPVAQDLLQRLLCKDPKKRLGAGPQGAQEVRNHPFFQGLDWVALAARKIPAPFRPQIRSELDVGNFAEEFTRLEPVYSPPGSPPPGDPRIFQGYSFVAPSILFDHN
T8 sequence (O75460 19-977): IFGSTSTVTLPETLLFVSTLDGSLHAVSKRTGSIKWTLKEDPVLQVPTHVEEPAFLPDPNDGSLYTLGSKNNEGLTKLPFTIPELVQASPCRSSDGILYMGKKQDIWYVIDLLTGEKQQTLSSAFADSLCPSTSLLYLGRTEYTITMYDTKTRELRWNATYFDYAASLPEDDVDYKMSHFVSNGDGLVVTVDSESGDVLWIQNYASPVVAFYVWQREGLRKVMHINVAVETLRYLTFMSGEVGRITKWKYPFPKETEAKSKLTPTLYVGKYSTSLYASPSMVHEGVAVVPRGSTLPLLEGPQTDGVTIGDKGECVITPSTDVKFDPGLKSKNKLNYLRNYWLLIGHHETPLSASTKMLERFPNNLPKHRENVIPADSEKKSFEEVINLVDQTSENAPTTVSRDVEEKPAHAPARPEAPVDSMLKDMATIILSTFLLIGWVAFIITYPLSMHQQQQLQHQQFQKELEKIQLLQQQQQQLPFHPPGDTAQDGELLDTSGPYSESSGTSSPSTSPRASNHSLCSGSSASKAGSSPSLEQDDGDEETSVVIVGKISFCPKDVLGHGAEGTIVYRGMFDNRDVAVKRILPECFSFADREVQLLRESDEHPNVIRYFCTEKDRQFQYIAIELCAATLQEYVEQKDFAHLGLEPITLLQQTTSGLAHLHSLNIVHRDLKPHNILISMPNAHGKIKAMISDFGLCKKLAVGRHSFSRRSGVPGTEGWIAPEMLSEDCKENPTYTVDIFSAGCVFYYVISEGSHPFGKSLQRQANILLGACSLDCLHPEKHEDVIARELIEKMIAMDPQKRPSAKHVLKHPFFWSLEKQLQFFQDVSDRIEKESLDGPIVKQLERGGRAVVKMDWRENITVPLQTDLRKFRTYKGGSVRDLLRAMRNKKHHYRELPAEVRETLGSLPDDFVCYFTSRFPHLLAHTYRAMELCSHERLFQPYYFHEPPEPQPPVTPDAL
T9 sequence (Q8TDR2 whole entry): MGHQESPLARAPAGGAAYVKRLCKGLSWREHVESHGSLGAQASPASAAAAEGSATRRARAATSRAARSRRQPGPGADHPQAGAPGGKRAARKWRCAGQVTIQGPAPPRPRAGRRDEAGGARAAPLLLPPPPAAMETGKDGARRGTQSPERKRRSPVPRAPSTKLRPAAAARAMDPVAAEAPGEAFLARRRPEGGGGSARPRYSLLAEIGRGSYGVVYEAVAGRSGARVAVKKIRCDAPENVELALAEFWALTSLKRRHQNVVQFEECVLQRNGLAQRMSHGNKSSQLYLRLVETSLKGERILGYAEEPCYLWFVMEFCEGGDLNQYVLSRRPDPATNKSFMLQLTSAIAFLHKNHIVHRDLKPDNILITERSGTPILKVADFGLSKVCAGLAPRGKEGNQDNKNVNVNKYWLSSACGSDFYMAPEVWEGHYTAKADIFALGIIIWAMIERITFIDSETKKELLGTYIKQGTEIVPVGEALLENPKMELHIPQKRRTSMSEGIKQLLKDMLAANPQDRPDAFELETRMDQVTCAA

## Cc1ccc(C2=Nc3cccnc3S(=O)(=O)c3ccccc32)cc1 [TBPT, 6-(p-tolyl)benzo[f] pyrido[2,3-b][1,4] thiazepine 11,11-dioxide]
MELK; 5 μM
  remaining binding at 5 µM: 100%
MELK; 10 μM
  remaining binding at 10 µM: 100%
MST2; 5 μM
  remaining binding at 5 µM: 63%
MST2; 10 μM
  remaining binding at 10 µM: 100%
AXL; 5 μM
  remaining binding at 5 µM: 98%
AXL; 10 μM
  remaining binding at 10 µM: 100%
BRK; 5 μM
  remaining binding at 5 µM: 100%
BRK; 10 μM
  remaining binding at 10 µM: 98%
PIK3CG; 5 μM
  remaining binding at 5 µM: 89%
PIK3CG; 10 μM
  remaining binding at 10 µM: 80%
TBK1; 5 μM
  remaining binding at 5 µM: 100%
TBK1; 10 μM
  remaining binding at 10 µM: 100%
CDK3; 5 μM
  remaining binding at 5 µM: 100%
CDK3; 10 μM
  remaining binding at 10 µM: 100%
ERN1; 5 μM
  remaining binding at 5 µM: 92%
ERN1; 10 μM
  remaining binding at 10 µM: 100%
STK35; 5 μM
  remaining binding at 5 µM: 97%
STK35; 10 μM
  remaining binding at 10 µM: 100%
SgK110; 5 μM
  remaining binding at 5 µM: 100%
SgK110; 10 μM
  remaining binding at 10 µM: 100%
[1]; 5 μM
  remaining binding at 5 µM: 75%
[1]; 10 μM
  remaining binding at 10 µM: 100%
INSR; 5 μM
  remaining binding at 5 µM: 98%
INSR; 10 μM
  remaining binding at 10 µM: 84%
DAPK1; 5 μM
  remaining binding at 5 µM: 83%
DAPK1; 10 μM
  remaining binding at 10 µM: 100%
PIK3CA(H1047Y); 5 μM
  remaining binding at 5 µM: 95%
PIK3CA(H1047Y); 10 μM
  remaining binding at 10 µM: 100%
PIM1; 5 μM
  remaining binding at 5 µM: 91%
PIM1; 10 μM
  remaining binding at 10 µM: 90%
MLK3; 5 μM
  remaining binding at 5 µM: 87%
MLK3; 10 μM
  remaining binding at 10 µM: 100%
MAP3K1; 5 μM
  remaining binding at 5 µM: 100%
MAP3K1; 10 μM
  remaining binding at 10 µM: 100%
CAMK1G; 5 μM
  remaining binding at 5 µM: 100%
CAMK1G; 10 μM
  remaining binding at 10 µM: 100%
SRPK2; 5 μM
  remaining binding at 5 µM: 96%
SRPK2; 10 μM
  remaining binding at 10 µM: 78%
PYK2; 5 μM
  remaining binding at 5 µM: 100%
PYK2; 10 μM
  remaining binding at 10 µM: 100%
CDK9; 5 μM
  remaining binding at 5 µM: 100%
CDK9; 10 μM
  remaining binding at 10 µM: 100%
YSK1; 5 μM
  remaining binding at 5 µM: 99%
YSK1; 10 μM
  remaining binding at 10 µM: 100%
ULK1; 5 μM
  remaining binding at 5 µM: 100%
ULK1; 10 μM
  remaining binding at 10 µM: 83%
PIM3; 5 μM
  remaining binding at 5 µM: 96%
PIM3; 10 μM
  remaining binding at 10 µM: 100%
EGFR; 5 μM
  remaining binding at 5 µM: 100%
EGFR; 10 μM
  remaining binding at 10 µM: 91%
TESK1; 5 μM
  remaining binding at 5 µM: 87%
TESK1; 10 μM
  remaining binding at 10 µM: 95%
ACVR2A; 5 μM
  remaining binding at 5 µM: 100%
ACVR2A; 10 μM
  remaining binding at 10 µM: 93%
PIK3CA(C420R); 5 μM
  remaining binding at 5 µM: 100%
PIK3CA(C420R); 10 μM
  remaining binding at 10 µM: 100%
S6K1; 5 μM
  remaining binding at 5 µM: 100%
S6K1; 10 μM
  remaining binding at 10 µM: 88%
PAK7; 5 μM
  remaining binding at 5 µM: 78%
PAK7; 10 μM
  remaining binding at 10 µM: 95%
